Experimental data published in publication PMC11054271, “ABCG2 Transports the Flukicide Nitroxynil and Affects Its Biodistribution and Secretion into Milk” (Pharmaceutics, 2024).

Columns and labels:
[1] = system: ovine ABCG2; test: Transepithelial transport assay in MDCK-II cells transduced with ovine ABCG2; format: in vitro ADME; conditions: sheep, MDCK-II oABCG2, nitroxynil 10 µM, no Ko143, read-out: Relative efflux transport ratio (BA/AB)
Procedure: (§1) Parental Madin–Darby canine kidney epithelial cells (MDCK–II) and their subclones transduced with murine (mAbcg2) and human (hABCG2) variants of ABCG2 were kindly provided by Dr. A. H. Schinkel (Netherlands Cancer Institute). Transduced MDCK–II cells with the ovine (oABCG2) and bovine (bABCG2) variants were previously generated by our group. Cells were cultured as described elsewhere.
(§2) Transepithelial transport assays were carried out as previously described with minor variations, using Hanks’ balanced salt solution (Sigma-Aldrich) supplemented with HEPES (25 mM), with or without Ko143 (1 μM), and containing or not nitroxynil 10 μM. […] At the end of the experiment, confluence of the monolayer was measured with the previously described Lucifer Yellow permeability test, with minor modifications. The appearance of nitroxynil in the opposite side of the well was measured by HPLC as later described. Active transport was expressed as relative efflux transport ratio (apically directed transport percentage divided by the basolaterally directed translocation percentage) at 4 h and referred to the initial concentration. […]
(§3) Waters 2695 separation module and Waters 2998 UV photodiode array detector set at 270 nm were used for samples analysis. […] Limit of detection (LOD) and quantification (LOQ) were calculated as previously described. […]

[2] = molecular target: T1, murine Abcg2 (Mus musculus, UniProt Q7TMS5); test: Transepithelial transport assay in MDCK-II cells transduced with murine Abcg2; format: in vitro ADME; design: expressed in transfected cells; host or cells: MDCK-II (canine kidney) subclone, provided by A. H. Schinkel (Netherlands Cancer Institute); conditions: MDCK-II mAbcg2, nitroxynil 10 µM, no Ko143, read-out: Relative efflux transport ratio (BA/AB)
T1 sequence (Q7TMS5 1-657): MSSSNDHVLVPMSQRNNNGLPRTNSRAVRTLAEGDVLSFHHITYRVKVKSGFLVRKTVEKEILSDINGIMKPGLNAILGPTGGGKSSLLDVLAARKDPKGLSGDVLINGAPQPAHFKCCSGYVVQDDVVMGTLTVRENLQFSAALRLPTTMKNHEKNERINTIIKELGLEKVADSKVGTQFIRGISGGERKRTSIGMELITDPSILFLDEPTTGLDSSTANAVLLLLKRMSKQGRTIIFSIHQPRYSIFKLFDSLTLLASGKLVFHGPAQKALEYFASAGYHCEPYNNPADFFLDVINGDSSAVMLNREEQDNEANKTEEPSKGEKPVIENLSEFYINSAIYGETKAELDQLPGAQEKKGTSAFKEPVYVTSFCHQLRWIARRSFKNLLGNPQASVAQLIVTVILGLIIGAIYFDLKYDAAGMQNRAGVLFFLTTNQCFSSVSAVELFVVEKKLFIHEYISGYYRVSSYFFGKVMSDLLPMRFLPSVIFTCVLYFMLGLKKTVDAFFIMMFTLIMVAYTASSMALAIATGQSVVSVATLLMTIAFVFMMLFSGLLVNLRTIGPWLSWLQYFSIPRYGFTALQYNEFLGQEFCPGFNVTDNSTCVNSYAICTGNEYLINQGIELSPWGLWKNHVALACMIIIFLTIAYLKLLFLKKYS
Procedure: as §1, §2, §3

[3] = system: murine Abcg2; test: Plasma pharmacokinetics in wild-type and Abcg2−/− male mice; format: in vivo; conditions: 10 mg/kg s.c.
Procedure: (§4) All in vivo experiments were carried out using wild-type and Abcg2^−/− mice aged between 8 and 17 weeks, all of >99% FVB/N genetic background, generated and gently supplied by A. H. Schinkel (Netherlands Cancer Institute). Mice were housed and handled complying with institutional and ARRIVE guidelines and European legislation (EU Directive 2010/63/EU for animal experiments). Additionally, experimental procedures were approved by the Animal Care and Use Committee of the University of León and the Junta de Castilla y León (ULE_011_2019).
For pharmacokinetic experiments, a single dose of nitroxynil at 10 mg/kg was administered subcutaneously to wild-type and Abcg2^−/− male mice (n = 4–5, for each time point). Distomicide® (250 mg/mL) commercial solution was dissolved in saline (sodium chloride 0.9%) and dosed at 200 μL per 30 g body weight. Blood samples were collected at different time points (0.5, 3, 4.5, 6, 24, 48 and 96 h) and heparinized blood samples were centrifugated for 15 min at 3000× g. […]
Plasma, milk and tissue samples from each animal were individually processed and analyzed without pooling, while samples from transport assays were not processed. […]
as §3

[4] = molecular target: T1, murine Abcg2; test: Tissue distribution in wild-type and Abcg2−/− male mice; format: in vivo; design: from tissue; host or cells: whole animal: wild-type vs Abcg2-/- mice, >99% FVB/N background
Procedure: as §4
For pharmacokinetic experiments, a single dose of nitroxynil at 10 mg/kg was administered subcutaneously to wild-type and Abcg2^−/− male mice (n = 4–5, for each time point). Distomicide® (250 mg/mL) commercial solution was dissolved in saline (sodium chloride 0.9%) and dosed at 200 μL per 30 g body weight. Blood samples were collected at different time points (0.5, 3, 4.5, 6, 24, 48 and 96 h) and heparinized blood samples were centrifugated for 15 min at 3000× g. Organs were also collected at 24 and 96 h after euthanasia. Linear trapezoidal rule was used to calculate the area under the plasma concentration–time curve (AUC) parameter.
Plasma, milk and tissue samples from each animal were individually processed and analyzed without pooling, while samples from transport assays were not processed. Tissue samples were homogenized in a mixture of 50% water/50% methanol HCl 0.5% (v/v); 1 mL solution per 0.1 g tissue. The entire amount of collected milk (74.7–295.1 mg) and 100 μL plasma and tissue homogenates were processed. To each sample, 10 μL of a nitrofurantoin solution (10 μg/mL for plasma and milk and 2 μg/mL for homogenized tissues) was added as an internal standard and 150 μL acetonitrile was used to precipitate the proteins. The mixture was vortexed horizontally for 15 min and centrifugated at 10,000× g for 5 min at 4 °C. Supernatant was transferred to a new tube and dried at 40 °C under N2 stream. Samples were reconstituted in 100 μL of mobile phase and 50 μL was injected into HPLC. Standards were subjected to the same procedures as samples.
Waters 2695 separation module and Waters 2998 UV photodiode array detector set at 270 nm were used for samples analysis. Chromatographic conditions for nitroxynil detection were based on previously described methods, with minor modifications. Chromatographic separation was achieved on a reverse-phase column (Synergy 4 μm Hydro–RP 80 Å, 250 × 4.60 mm; Phenomenex®, Torrance, CA, USA) using an isocratic binary mobile phase consisting of 25 mM potassium phosphate monobasic (KH2PO4), pH 4: acetonitrile (70:30 for culture samples and 80:20 for animal samples) at a flow rate of 1 mL/min. Autosampler and column temperature were 4 °C and 40 °C, respectively. Limit of detection (LOD) and quantification (LOQ) were calculated as previously described. For cell culture samples, LOD and LOQ were 0.003 μg/mL and 0.007 μg/mL, respectively. For in vivo samples, LOD was in the range of 0.01–0.07 μg/mL and LOQ in the range of 0.03–0.15 μg/mL.

[5] = wild-type male mice, 96 h, 10 mg/kg s.c.

efflux ratio at 4 h, 10 µM [1]: 27.4 ± 5.32
efflux ratio at 4 h, 10 µM [2]: 32.3 ± 7.59
AUC ([3]; FVB/N, mouse, plasma, sc, Abcg2−/− male mice, 0.5-96 h): 3530 ± 130 µg·h/mL
Time of Cmax (sampling point) ([3]; both type of mice (wild-type and Abcg2−/−), male): 3 h
Concentration in kidney, small intestine and testis, fold higher in Abcg2−/− mice ([4]; abstract statement, time not given): ~2 fold
Small intestine levels, fold higher in Abcg2−/− compared with wild-type ([4]; male mice, 24 h, 10 mg/kg s.c.): 1.4 fold
Spleen accumulation, fold higher in Abcg2−/− compared with wild-type ([4]; male mice, 24 h, 10 mg/kg s.c.): 1.7 fold
Testis concentration, fold higher in Abcg2−/− compared with wild-type ([4]; male mice, 24 h, 10 mg/kg s.c.): ~1.6 fold
Tissue concentration, liver [4, 5]: <LOQ
Tissue concentration, small intestine [4, 5]: <LOQ
Tissue concentration, spleen [4, 5]: <LOQ
Tissue concentration, testis [4, 5]: <LOQ
Structure (SMILES): N#Cc1cc(I)c(O)c([N+](=O)[O-])c1 [nitroxynil]
